Source: patent US9718790B2, “Triazine derivative and pharmaceutical composition having an analgesic activity comprising the same” (SHIONOGI & CO., LTD., priority 2010, dated 2017)

target: human P2X3 receptor (Homo sapiens (Human), UniProt P56373); test: Evaluation of human P2X3 receptor inhibitory activity (Fluo-3 calcium fluorescence, FDSS 3000, ATP stimulation); format: cell-based; settings: C6BU-1 cells stably expressing human P2X3 receptor;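 note: stimulus was 50 nM ATP with fluorescence followed for 3 min, and the response per well was peak post-ATP fluorescence divided by the reading at measurement start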
Sequence (P56373 whole entry): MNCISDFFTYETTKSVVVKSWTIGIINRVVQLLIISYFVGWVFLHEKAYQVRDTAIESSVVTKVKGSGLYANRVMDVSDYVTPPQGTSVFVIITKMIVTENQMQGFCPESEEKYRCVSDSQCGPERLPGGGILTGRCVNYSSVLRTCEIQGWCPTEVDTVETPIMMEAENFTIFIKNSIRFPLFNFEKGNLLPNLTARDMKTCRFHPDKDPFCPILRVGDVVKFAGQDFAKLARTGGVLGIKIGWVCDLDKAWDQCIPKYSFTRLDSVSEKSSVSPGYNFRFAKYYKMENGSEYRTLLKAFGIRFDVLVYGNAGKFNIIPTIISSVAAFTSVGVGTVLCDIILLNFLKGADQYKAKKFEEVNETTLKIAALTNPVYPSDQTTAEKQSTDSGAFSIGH

In order of falling IC50:
1. Cc1cc(/N=c2\[nH]c(=O)n(C[C@H](C)C(=O)O)c(=O)n2Cc2ccccc2)ccc1OC(C)C [Compound I-0795]  724 nM
2. COc1ccc(/N=c2\[nH]c(=O)n(C[C@H](C)C(=O)O)c(=O)n2Cc2ccc(Cl)cc2)cc1C(F)(F)F [Compound I-0797]  701 nM
3. CC[C@@H](CC(=O)O)n1c(=O)[nH]/c(=N\c2ccc(OC(C)C)c(C)c2)n(Cc2ccc(Cl)cc2)c1=O [Compound I-0798]  465 nM
4. COC(=O)[C@@H](C)Cn1c(=O)[nH]/c(=N\c2ccc(OC)c(C(F)(F)F)c2)n(Cc2ccc(Cl)cc2)c1=O [Compound I-0796]  386 nM
5. CC[C@H](CC(=O)O)n1c(=O)[nH]/c(=N\c2ccc(OC(C)C)c(C)c2)n(Cc2ccc(Cl)cc2)c1=O [Compound I-0799]  281 nM
6. COC(=O)[C@@H](C)Cn1c(=O)[nH]/c(=N\c2ccc3c(c2)CCCC3)n(Cc2ccc(Cl)cc2)c1=O [Compound I-0791]  266 nM
7. Cc1cc(/N=c2\[nH]c(=O)n([C@@H]3CCOC3=O)c(=O)n2Cc2ccc(Cl)cc2)ccc1OC(C)C [Compound I-0808]  203 nM
8. CCc1ccc(/N=c2\[nH]c(=O)n(C[C@H](C)C(=O)OC)c(=O)n2Cc2ccc(Cl)cc2)cc1C [Compound I-0815]  189 nM
9. COCCOc1ccc(/N=c2\[nH]c(=O)n(C[C@H](C)C(=O)O)c(=O)n2Cc2ccc(Cl)cc2)cc1Cl [Compound I-0789]  181 nM
10. CC(C)c1cccc(/N=c2\[nH]c(=O)n(C[C@H](C)C(=O)O)c(=O)n2Cc2ccc(Cl)cc2)c1 [Compound I-0792]  170 nM
11. CC(C)Oc1ccc(/N=c2\[nH]c(=O)n(C[C@H](C)C(=O)O)c(=O)n2Cc2ccccc2)cc1Cl [Compound I-0794]  168 nM
12. Cc1cc(/N=c2\[nH]c(=O)n(C(C)(C)CC(=O)O)c(=O)n2Cc2ccc(Cl)cc2)ccc1OC(C)C [Compound I-0804]  132 nM
13. CC[C@H](CC(=O)OC)n1c(=O)[nH]/c(=N\c2ccc(OC(C)C)c(C)c2)n(Cc2ccc(Cl)cc2)c1=O [Compound I-0783]  65 nM
14. CCCOc1ccc(/N=c2\[nH]c(=O)n(C(C)(C)CC(=O)OCC)c(=O)n2Cc2ccc(Cl)cc2)cc1 [Compound I-0821]  50 nM
15. COC(=O)[C@@H](C)[C@@H](C)n1c(=O)[nH]/c(=N\c2ccc(OC(C)C)c(C)c2)n(Cc2ccc(Cl)cc2)c1=O [Compound I-0811]  40 nM
16. CCCCOc1ccc(/N=c2\[nH]c(=O)n(C[C@H](C)C(=O)OC)c(=O)n2Cc2ccc(C)cc2)cc1 [Compound I-0816]  37 nM
17. CCCCOc1ccc(/N=c2\[nH]c(=O)n(C[C@H](C)C(=O)O)c(=O)n2Cc2ccc(C)cc2)cc1 [Compound I-0820]  35 nM
18. COC(=O)[C@H](C)[C@H](C)n1c(=O)[nH]/c(=N\c2ccc(OC(C)C)c(C)c2)n(Cc2ccc(Cl)cc2)c1=O [Compound I-0809]  34 nM
19. COC(=O)[C@@H](C)Cn1c(=O)[nH]/c(=N\c2ccc(OCC(C)C)cc2)n(Cc2ccc(C)cc2)c1=O [Compound I-0812]  33 nM
20. Cc1cc(/N=c2\[nH]c(=O)n(CCCC(=O)NCCO)c(=O)n2Cc2ccc(Cl)cc2)ccc1OC(C)C [Compound I-0788]  32 nM
21. CCOC(=O)CC(C)(C)n1c(=O)[nH]/c(=N\c2ccc(OC(C)C)c(C)c2)n(Cc2ccc(Cl)cc2)c1=O [Compound I-0805]  29 nM
22. CC(C)Oc1ccc(/N=c2\[nH]c(=O)n(C(C)(C)CC(=O)O)c(=O)n2Cc2ccc(Cl)cc2)cc1Cl [Compound I-0817]  27 nM
23. CCOC(=O)CC(C)(C)n1c(=O)[nH]/c(=N\c2ccc(OC(C)C)c(F)c2)n(Cc2ccc(Cl)cc2)c1=O [Compound I-0822]  26 nM
24. Cc1cc(/N=c2\[nH]c(=O)n(CCCC(=O)N3CCOCC3)c(=O)n2Cc2ccc(Cl)cc2)ccc1OC(C)C [Compound I-0787]  24 nM
25. CCOC(=O)c1cc(Cn2c(=O)[nH]/c(=N\c3ccc(OC(C)C)c(C)c3)n(Cc3ccc(Cl)cc3)c2=O)on1 [Compound I-0784]  22 nM
26. CCCCOc1ccc(/N=c2\[nH]c(=O)n(C[C@H](C)C(=O)O)c(=O)n2Cc2ccc(Cl)cc2)cc1 [Compound I-0819]  22 nM
27. Cc1cc(/N=c2\[nH]c(=O)n(Cc3cc(C(=O)O)no3)c(=O)n2Cc2ccc(Cl)cc2)ccc1OC(C)C [Compound I-0802]  21 nM
28. CCCCOc1ccc(/N=c2\[nH]c(=O)n(C[C@H](C)C(=O)OC)c(=O)n2Cc2ccc(Cl)cc2)cc1 [Compound I-0814]  17 nM
29. CCOC(=O)CC(C)(C)n1c(=O)[nH]/c(=N\c2ccc(OC(C)C)c(Cl)c2)n(Cc2ccc(Cl)cc2)c1=O [Compound I-0810]  16 nM
30. CNC(=O)CCCn1c(=O)[nH]/c(=N\c2ccc(OC(C)C)c(C)c2)n(Cc2ccc(Cl)cc2)c1=O [Compound I-0786]  15 nM
31. COC(=O)[C@@H](C)Cn1c(=O)[nH]/c(=N\c2ccc3nc(C)ccc3c2)n(Cc2ccc(Cl)cc2)c1=O [Compound I-0790]  13 nM
32. CO[C@@H](Cn1c(=O)[nH]/c(=N\c2ccc(OC(C)C)c(C)c2)n(Cc2ccc(Cl)cc2)c1=O)C(=O)O [Compound I-0807, (S)-1-(4-chlorobenzyl)-6-(3-mehyl-4-isopropoxyphenylimino)-3-(2-hydroxycarbonyl-2-methoxyethyl)-1,3,5-triazinane-2,4-dion]  13 nM
33. COC(=O)[C@H](Cn1c(=O)[nH]/c(=N\c2ccc(OC(C)C)c(C)c2)n(Cc2ccc(Cl)cc2)c1=O)OC [Compound I-0806, (S)-1-(4-chlorobenzyl)-6-(3-mehyl-4-isopropoxyphenylimino)-3-(2-methoxycarbonyl-2-methoxy-ethyl)-1,3,5-triazinane-2,4-dion]  12 nM
34. CCOC(=O)c1nc(Cn2c(=O)[nH]/c(=N\c3ccc(OC(C)C)c(C)c3)n(Cc3ccc(Cl)cc3)c2=O)cs1 [Compound I-0785]  11 nM
35. Cc1cc(/N=c2\[nH]c(=O)n(Cc3cccc(C(=O)O)n3)c(=O)n2Cc2ccc(Cl)cc2)ccc1OC(C)C [Compound I-0801]  10 nM

same assay, conditions: human P2X3 receptor, Test Example 1

In order of rising IC50:
1. CC[C@@H](C)Oc1ccc(/N=c2\[nH]c(=O)n(C[C@H](C)C(=O)OC)c(=O)n2Cc2ccc(C)cc2)cc1C [Compound I-0823]  11 nM
2. CCCOc1ccc(/N=c2\[nH]c(=O)n(C[C@H](C)C(=O)OC)c(=O)n2Cc2ccc(C)cc2)cc1Cl [Compound I-0839]  12 nM
3. COC(=O)[C@@H](C)Cn1c(=O)[nH]/c(=N\c2ccc(OCC3CC3)cc2)n(Cc2ccc(Cl)cc2)c1=O [Compound I-0833]  15 nM
4. CCCOc1ccc(/N=c2\[nH]c(=O)n(C[C@H](C)C(=O)O)c(=O)n2Cc2ccc(C)cc2)cc1Cl [Compound I-0840]  17 nM
5. CC[C@@H](C)Oc1ccc(/N=c2\[nH]c(=O)n(C[C@H](C)C(=O)OC)c(=O)n2Cc2ccc(C)cc2)cc1 [Compound I-0824]  18 nM
6. COC(=O)[C@@H](C)Cn1c(=O)[nH]/c(=N\c2ccc(OCC3CC3)cc2)n(Cc2ccc(C)cc2)c1=O [Compound I-0834]  18 nM
7. CC(C)Oc1ccc(/N=c2\[nH]c(=O)n(CC(C)(C)CC(=O)O)c(=O)n2Cc2ccc(Cl)cc2)cc1F [Compound I-0845]  24 nM
8. Cc1cc(/N=c2\[nH]c(=O)n([C@H]3CC[C@@H](C(=O)O)CC3)c(=O)n2Cc2ccc(Cl)cc2)ccc1OC(C)C [Compound I-0851]  24 nM
9. Cc1cc(/N=c2\[nH]c(=O)n([C@H](C)[C@H](C)C(=O)O)c(=O)n2Cc2ccc(Cl)cc2)ccc1OC(C)C [Compound I-0825]  25 nM
10. CCCOc1ccc(/N=c2\[nH]c(=O)n(C[C@H](C)C(=O)O)c(=O)n2Cc2ccc(C)cc2)cc1 [Compound I-0828]  25 nM
11. Cc1ccc(Cn2c(=O)n(C[C@H](C)C(=O)O)c(=O)[nH]/c2=N\c2ccc(OCC(C)C)cc2)cc1 [Compound I-0827]  26 nM
12. COC(=O)[C@@H](C)Cn1c(=O)[nH]/c(=N\c2ccc(OCC(F)F)cc2)n(Cc2ccc(C)cc2)c1=O [Compound I-0847]  31 nM
13. Cc1ccc(Cn2c(=O)n(C[C@H](C)C(=O)O)c(=O)[nH]/c2=N\c2ccc(OCC3CC3)cc2)cc1 [Compound I-0838]  33 nM
14. COC(=O)[C@@H](C)Cn1c(=O)[nH]/c(=N\c2ccc(OCC(F)F)cc2)n(Cc2ccc(Cl)cc2)c1=O [Compound I-0846]  35 nM
15. C[C@@H](Cn1c(=O)[nH]/c(=N\c2ccc(OCC(F)F)cc2)n(Cc2ccc(Cl)cc2)c1=O)C(=O)O [Compound I-0848]  60 nM
16. Cc1cc(/N=c2\[nH]c(=O)n([C@H]3CC[C@H](C(=O)O)CC3)c(=O)n2Cc2ccc(Cl)cc2)ccc1OC(C)C [Compound I-0850]  62 nM
17. COC(=O)[C@@H](C)Cn1c(=O)[nH]/c(=N\c2ccc(OCC(C)C)c(C)c2)n(Cc2ccc(Cl)cc2)c1=O [Compound I-0831]  77 nM
18. Cc1cc(/N=c2\[nH]c(=O)n(C[C@H](C)C(=O)O)c(=O)n2Cc2ccc(Cl)cc2)ccc1OCC(C)C [Compound I-0835]  78 nM
19. Cc1ccc(Cn2c(=O)n(C[C@H](C)C(=O)O)c(=O)[nH]/c2=N\c2ccc(OCC(F)F)cc2)cc1 [Compound I-0849]  78 nM
20. CC(C)Oc1ccc(/N=c2\[nH]c(=O)n(C(C)(C)CC(=O)O)c(=O)n2Cc2ccc(Cl)cc2)cc1F [Compound I-0830]  89 nM
21. Cc1ccc(Cn2c(=O)n(C[C@H](C)C(=O)O)c(=O)[nH]/c2=N\c2ccc(OCC(C)C)c(C)c2)cc1 [Compound I-0836]  95 nM
22. COC(=O)[C@@H](C)Cn1c(=O)[nH]/c(=N\c2ccc(OCC(C)C)c(C)c2)n(Cc2ccc(C)cc2)c1=O [Compound I-0832]  103 nM
23. COC(=O)[C@@H](C)Cn1c(=O)[nH]/c(=N\c2ccc(C)c(C(F)(F)F)c2)n(Cc2ccc(Cl)cc2)c1=O [Compound I-0841]  150 nM
24. Cc1ccc(/N=c2\[nH]c(=O)n(C[C@H](C)C(=O)O)c(=O)n2Cc2ccc(Cl)cc2)cc1C(F)(F)F [Compound I-0843]  183 nM
25. CCCOc1ccc(/N=c2\[nH]c(=O)n(C(C)(C)CC(=O)O)c(=O)n2Cc2ccc(Cl)cc2)cc1 [Compound I-0829]  216 nM
